Like-named read-outs stand apart in the source and are kept apart here.
Experiments:
Format in all cases: cell-based, human
[1] = tested on: MCF-7 cells; assay: In vitro cytotoxicity assessment, alamar blue assay, 24-h exposure
Protocol: The MCF-7 (human breast cancer) and MCF-12A (non-tumourigenic human breast) cell lines were obtained from the Technological University Dublin (TUDublin, City Campus) internal cell bank and commercially from the American Type Culture Collection (ATCC), respectively. Both cell lines were cultured using Dulbecco’s Modified Eagle Medium/Nutrient Mixture F-12 Ham (DMEM-F12) (Sigma, Ireland) (Cat# D6421) media. The MCF-7 media was supplemented with 10% Foetal Bovine Serum (Sigma, Ireland) (Cat# F7524) and 1% L-Glutamine (Sigma, Ireland) (Cat# 592020C). The MCF-12A media was supplemented with 5% Equine Serum (Sigma, Ireland) (Cat# H0146) 1.25% L-Glutamine (Sigma, Ireland) (Cat# 592020C), 20 ng/ml Human Epidermal Growth Factor (Thermo Fisher Scientific, Ireland) (Cat# PHG0313), 0.01 mg/ml insulin (Thermo Fisher Scientific, Ireland)(Cat# 12585014) and 500 ng/ml hydrocortisone (Sigma, Ireland) (Cat# H0888). The cells were grown in T75 culture flasks (Sarstedt, Germany) (Cat# 83.3911.002) and were incubated in a 5% CO2 atmosphere at 37 ℃. […] Following the incubation period, the media was removed, and cells were washed with sterile phosphate-buffered saline (PBS). […] Following the exposure period, the drug-containing media was removed, and cells were washed three times with PBS, ensuring complete removal of the test agents. A 5% working solution of Alamar Blue (Thermo Fisher Scientific, Ireland) (Cat# DAL1100) was prepared in dark conditions using unsupplemented cell culture media. 100 μl of the solution was added to each well, and the cells were incubated for 3 h. […] Each exposure was carried out in triplicate plates and was repeated three independent times. The software packages Microsoft^Ⓡ Excel (USA) and GraphPad Prism (Ver. 10.0.3) (GraphPad, USA) were used to analyse the alamar blue data. The treated sample values were first normalised to the negative control values. After normalisation, the mean and standard deviations (SD) were established using Microsoft^Ⓡ Excel. The statistical analysis package GraphPad was then used to determine the IC25 and IC50 concentrations.

[2] = tested on: MCF-7 cells; assay: Detection of reactive oxygen species with H2DCFDA; conditions: MCF-7, 0.78 μM to 50 μM, over a 6-h period, fold-change compared to the negative control
Protocol: The production of reactive oxygen species (ROS) was detected in MCF-7 and MCF12A cells using the cell-permeant dye 2',7'- dichlorodihydrofluorescein diacetate (H2DCFDA) (Thermo Fisher Scientific, Ireland) (Cat# D399). Cells were seeded at a density of 1 × 10^4 in 96 well plates and incubated for 24 h. Post-incubation, the media was removed, and cells were washed with PBS. A 10 μM DCFH-DA working solution was prepared using cell culture media, and the cells were incubated with 100 μl of the solution in the dark for 30 min. […] Fluorescent measurements were recorded at 15 min, 30 min, 1 h, and subsequently every hour up to 6 h using a Varioskan Lux™ multimode microplate reader (Thermo Fisher Scientific, Ireland) at an excitation wavelength of 495 nm and emission of 527 nm. The assay was repeated three independent times, using three replicates per plate.
The cells were treated with a concentration range from 0.78 μM to 50 μM, and the response was measured over a 6-h period. This facilitated the evaluation of whether there was a time and/or concentration dependent response from the cells. Hydrogen peroxide (H2O2) was used as a positive control. ROS production is presented as fold-change compared to the negative control.

[3] = tested on: caspase-3/7 in MCF-7 cells; assay: Caspase 3/7 expression, FLICA (FAM-DEVD-FMK) flow cytometry; conditions: MCF-7, IC25 concentration, 24 h
Protocol: The expression of caspase-3/7 in MCF-7 and MCF-12A cells was determined using the VybrantTM FAM™ Caspase-3 and Caspase-7 Assay Kit (Cat# V35118) (Thermo Fisher Scientific, Ireland). Cells were seeded at a density of 1 × 10^5 in T25 flasks and incubated in routine conditions for 24 h. […] Post-exposure, the cells were harvested for staining.
(§1) Flow cytometry data analysis was performed with the CytExpert package (Ver. 2.4) (Beckman Coulter, USA) and Microsoft^Ⓡ Excel (USA). The mean MFI and percentage cells were calculated using these packages, followed by one-way ANOVA analysis with post hoc Bonferroni correction using GraphPad Prism (Ver. 9.4) (GraphPad, USA).
The expression of caspase-3/7 was analysed in MCF-7 and MCF-12A cells using fluorescent labelled inhibitors of caspase (FLICA): FAM-DEVD-FMK. […] Following the apoptosis induction study, it was of interest to determine whether the complexes were stimulating the executioner caspases triggering the irreversible proteolytic degradation of cells, culminating in cell death. […] These three complexes were selected based on their structural similarities, while incorporating alternative metal centres.

[4] = tested on: MCF-12A cells; assay: Apoptosis induction, Annexin V / propidium iodide flow cytometry; conditions: IC25 concentration, 24 h
Protocol: (§2) MCF-7 and MCF-12A cells were seeded at a density of 1 × 10^5 in T25 flasks (Sarstedt, Germany) and incubated for 24 h at 37 °C with 5% CO2 allowing for attachment. Post -incubation, the media was removed, cells were washed with sterile PBS and then treated using IC25 concentrations established from the in vitro cytotoxicity screen. […] After the exposure period, the cells were enzymatically detached using trypsin, collected and centrifuged at 1200RPM for 10 min. The cells were then washed with PBS, re-centrifuged and resuspended in 1 ml of annexin binding buffer. Prior to staining, the concentration of each sample was adjusted to 1 × 10^6 cells/ml. The cells were stained with 1 μl of propidium iodide (PI) (Sigma, Ireland) (Cat #P4864) and 2 μl of Annexin V (Thermo Fisher Scientific, Ireland) (Cat #A13199). The cells were incubated at room temperature for 15 min prior to analysis. The staining process was completed in the dark to eliminate interference with photo-sensitive reagents. Immediately prior to analysis by flow cytometry, 400 μl of annexin binding buffer was added to each sample. Samples were analysed using a (CytoFLEX) (Beckman Coulter, USA). The AV/PI assay was completed three independent times.
as §1
(§3) The induction of apoptosis was analysed in MCF-7 and MCF-12A cells using the Annexin V and Propidium Iodide assay with flow cytometry. […] The assay allows for the differentiation of viable, apoptotic and necrotic cells based on the selective staining of Annexin V and PI. Annexin V binds to phosphatidylserines externalised to the outer leaflet of the plasma membrane during apoptosis; and PI is a membrane impermeable dye that binds to DNA of necrotic cells with compromised plasma membranes.

[5] = tested on: MCF-7 cells; assay: as above; conditions: MCF-7, IC25 concentration, 24 h
Protocol: as §2, §1, §3

[6] = MCF-7, 24-h exposure, 25% reduction in metabolic activity, mean ± SD (N = 3)
[7] = MCF-7, 24-hour exposure, per one metal centre, mean ± S.D. (N=3)
[8] = MCF-7, 24-hour exposure, per one metal centre, mean ± S.D. (N=3), read-out: IC50 calculated per one metal centre

| Molecule | IC50 ([1]; Homo sapiens, MCF7, MCF-7, 24-h exposure, 50% reduction in metabolic activity, mean ± SD (N = 3), read-out: Cytotoxic activity IC50 ± SD) [µM] | Cytotoxic activity IC25 ± SD [1, 6] [µM] | IC25 calculated per one metal centre [1, 7] | Cytotoxic activity IC25 ± SD [1] [µM] | IC50 [1] [µM] | IC50 [1, 8] [µM] | ROS production [2] | Expression of caspase-3/7 (% cells) [3] | Apoptotic population (% cells) [4] | Necrotic population (% cells) [4] | Necrotic population (% cells) [5] | IC50 ([1]; MCF-7, 24-h exposure, 50% reduction in metabolic activity, mean ± SD (N = 3), read-out: Cytotoxic activity IC50 ± SD) [µM] |
| --- | --- | --- | --- | --- | --- | --- | --- | --- | --- | --- | --- | --- |
| c1cnc2c(c1)ccc1cccnc12 [Phen, 1,10-Phenanthroline] | 33.2 ± 9.36 | 9.02 ± 4.26 | 9.02 ± 4.26  µM |  |  |  |  |  |  |  |  |  |
| O=C([O-])CCCCCCC(=O)[O-].[Cu+2].[Cu+2].[O-][Cl+3]([O-])([O-])[O-].[O-][Cl+3]([O-])([O-])[O-].c1cnc2c(c1)ccc1cccnc12.c1cnc2c(c1)ccc1cccnc12.c1cnc2c(c1)ccc1cccnc12.c1cnc2c(c1)ccc1cccnc12 [Complex 1, [Cu2(oda)(phen)4](ClO4)2] |  |  | 3.54 ± 0.28  µM | 1.77 ± 0.14 | 4.76 ± 0.3 | 9.52 ± 0.6 | moderate production of ROS |  |  |  |  |  |
| O=C([O-])CCCCCCC(=O)[O-].[Cu+2].c1cnc2c(c1)ccc1cccnc12.c1cnc2c(c1)ccc1cccnc12 [Complex 2, [Cu(oda)(phen)2]] |  | 2.04 ± 0.24 | 2.04 ± 0.24  µM |  |  | 6.72 ± 0.6 | moderate production of ROS | highest expression of caspase-3/7 |  |  |  |  |
| O=C([O-])CCCCCCC(=O)[O-].[Ag+].[Ag+].c1cnc2c(c1)ccc1cccnc12.c1cnc2c(c1)ccc1cccnc12.c1cnc2c(c1)ccc1cccnc12 [Complex 4, [Ag2(oda)(phen)3]] |  | 5.52 ± 0.89 | 11.04 ± 1.78  µM |  |  |  | lowest production |  | significant decrease in apoptotic cells | virtually no necrotic population |  |  |
| O=C([O-])CCCCCCCCCC(=O)[O-].[Ag+].[Ag+].c1cnc2c(c1)ccc1cccnc12.c1cnc2c(c1)ccc1cccnc12.c1cnc2c(c1)ccc1cccnc12 [Complex 5, [Ag2(udda)(phen)3]] |  | 5.84 ± 0.12 | 11.68 ± 0.24  µM |  |  |  | lowest production |  | same level of apoptosis | no necrotic population was observed | significant population |  |
| {[Mn2(oda)3(phen)4]^2−[Mn2(oda)(phen)4 (H2O)2]^2+} [Complex 7] |  | 0.70 ± 0.11 | 2.80 ± 0.44  µM |  |  | 11.2 ± 0.52 | potent inducer of ROS, eliciting the highest production in MCF-7 cells | lowest expression levels of the three complexes | significantly diminished apoptotic population | no necrosis observed | necrotic population also observed | 2.79 ± 0.13 |
